Results reported in patent publication US12171230B2, “Herbicidal compositions” (Bayer Aktiengesellschaft, priority 2018, dated 2024).

Key:
Format in all cases: in vivo
Poa annua = test: Post-emergence herbicidal action against Poa annua; conditions: for Herbicidal action in [%] 28 DAT against Poa annua: post-emergence
Description: (§1) When the observed efficacies exceed the formal sum total of the values of the tests with individual applications, they also exceed the expected value according to Colby, which is calculated using the formula below and is likewise regarded as an indication of synergism (cf. S. R. Colby; in Weeds 15 (1967) p. 20 to 22): E^C=A+B−([…])
(§2) Here: • A=efficacy of the active compound (A) in % at an application rate of a g a.i./ha; • B=efficacy of the active compound (B) in % at an application rate of b g a.i./ha; • E^C=expected value of the effect of the combination (A)+(B) in % at the combined application rate a+b g a.i./ha.
(§3) Seeds or rhizome pieces of mono- and dicotyledonous weeds are placed in sandy loam in pots, covered with soil and grown in a greenhouse under good growth conditions (temperature, air humidity, water supply). Three weeks after sowing, the test plants were treated at the three-leaf stage with the compositions according to the invention. The compositions according to the invention formulated as spray powders or as emulsion concentrates were sprayed onto the green plant parts in various dosages with an application rate of 300 to 800 l/ha of water (equivalent). After the test plants have been left to stand in the greenhouse under optimal growth conditions for about 3 to 4 weeks, the action of the preparations is scored visually in comparison to untreated controls. The compositions according to the invention also have good post-emergence herbicidal activity against a broad spectrum of economically important gramineous and broadleaf weeds.

Centaurea cyano = test: Post-emergence herbicidal action against Centaurea cyano
Description: Seeds or rhizome pieces of mono- and dicotyledonous weeds are placed in sandy loam in pots, covered with soil and grown in a greenhouse under good growth conditions (temperature, air humidity, water supply). Three weeks after sowing, the test plants were treated at the three-leaf stage with the compositions according to the invention. The compositions according to the invention formulated as spray powders or as emulsion concentrates were sprayed onto the green plant parts in various dosages with an application rate of 300 to 800 l/ha of water (equivalent).

Galium aparine = test: Post-emergence herbicidal action against Galium aparine; conditions: for Herbicidal action in [%] 28 DAT against Galium aparine: post-emergence
Description: as §1, §2, §3

Matricaria inodora = test: Post-emergence herbicidal action against Matricaria inodora
Bidens pilosa = test: Post-emergence herbicidal action against Bidens pilosa
Description: as §1, §2, §3

Digitaria sanguinalis = test: Post-emergence herbicidal action against Digitaria sanguinalis; conditions: for Herbicidal action: 21 DAT
Description: as §1, §2, §3

Alopecurus myosuroides [1] = test: Post-emergence herbicidal action against Alopecurus myosuroides
Bromus sterilis = test: Post-emergence herbicidal action against Bromus sterilis
Lolium rigidum = test: Post-emergence herbicidal action against Lolium rigidum
[2] = system: Lolium rigidum (resistant biotype); test: Post-emergence herbicidal action against Lolium rigidum (resistant biotype)
Phalaris minor [3] = test: Post-emergence herbicidal action against Phalaris minor
Amaranthus palmeri = test: Post-emergence herbicidal action against Amaranthus palmeri; conditions: Amaranthus palmeri, post-emergence, 504 h
Description: as §1, §2, §3

[4] = system: Lolium rigidum (resistant biotype); test: Post-emergence herbicidal action against Lolium rigidum (resistant biotype); remark: listed apart in the source
Description: (§4) The following abbreviations are used in the description and the tables that follow: • g of a.i./ha=grams of active substance (active ingredient) (=100% active compound) per hectare; • The sum total of the effects of the individual applications is reported under E^A; • expected values according to Colby are each reported under E^C.
(§5) The rating period is reported in days after application (DAT).

Phalaris minor [5] = test: Post-emergence herbicidal action against Phalaris minor; conditions: 15 g of a.i./ha
Description: as §4, §5

Alopecurus myosuroides [6] = test: Post-emergence herbicidal action against Alopecurus myosuroides; conditions: 1.7 g of a.i./ha
Description: as §4, §5

CCOC(=O)COc1ncccc1Oc1cc(-n2c(=O)cc(C(F)(F)F)n(C)c2=O)c(F)cc1Cl [(B9.14), ethyl [3-[2-chloro-4-fluoro-5-(1-methyl-6-trifluoromethyl-2,4-dioxo-1,2,3,4-tetrahydropyrimidin-3-yl)phenoxy]-2-pyridyloxy]acetate, reference compound]
Herbicidal action in [%] 28 DAT against Poa annua (Poa annua; 5 g of a.i./ha): 80%
Herbicidal action in [%] 28 DAT against Poa annua (Poa annua; 10 g of a.i./ha): 60%
Herbicidal action in [%] 28 DAT against Centaurea cyano (Centaurea cyano; 2.5 g of a.i./ha, post-emergence): 90%
Herbicidal action in [%] 28 DAT against Galium aparine (Galium aparine; 5 g of a.i./ha): 90%
Herbicidal action in [%] 28 DAT against Galium aparine (Galium aparine; 10 g of a.i./ha): 90%
Herbicidal action in [%] 28 DAT against Matricaria inodora (Matricaria inodora; 10 g of a.i./ha, post-emergence): 98%

COCc1cnc(C2=NC(C)(C(C)C)C(=O)N2)c(C(=O)O)c1 (stereo not shown) [(B4.11) Imazamox]
Herbicidal action 21 DAT [%] against Bidens pilosa (Bidens pilosa; 3.3 g of a.i./ha): 20%
Herbicidal action 21 DAT [%] against Bidens pilosa (Bidens pilosa; 30 g of a.i./ha): 50%
Herbicidal action 21 DAT [%] against Digitaria sanguinalis (Digitaria sanguinalis; 3.3 g of a.i./ha): 60%

CC(C)N.O=C(O)CNCP(=O)(O)O [(CAS 38641-94-0)]
Herbicidal action (Galium aparine; 28 DAT, 150 g a.i./ha): 40%

Cc1nn(C)c(O)c1C(=O)c1ccc(C(F)(F)F)cc1S(C)(=O)=O [(B4.22) Pyrasulfotole]
Herbicidal action in [%] 14 DAT against Poa annua L. (Poa annua; 5 g of a.i./ha): 0%
Herbicidal action in [%] 28 DAT against Poa annua L. (Poa annua; 5 g of a.i./ha): 0%
Herbicidal action in [%] 14 DAT against Poa annua L. (Poa annua; 15 g of a.i./ha): 0%
Herbicidal action in [%] 28 DAT against Poa annua L. (Poa annua; 15 g of a.i./ha): 0%
Herbicidal action in [%] 14 DAT against Poa annua L. (Poa annua; 45 g of a.i./ha): 0%
Herbicidal action in [%] 28 DAT against Poa annua L. (Poa annua; 45 g of a.i./ha): 0%
Herbicidal action in [%] 28 DAT against Centaurea cyanus (Centaurea cyano; 5 g of a.i./ha): 0%
Herbicidal action in [%] 14 DAT against Centaurea cyanus (Centaurea cyano; 15 g of a.i./ha): 10%
Herbicidal action in [%] 28 DAT against Centaurea cyanus (Centaurea cyano; 15 g of a.i./ha): 0%
Herbicidal action in [%] 14 DAT against Centaurea cyanus (Centaurea cyano; 45 g of a.i./ha): 30%
Herbicidal action in [%] 28 DAT against Centaurea cyanus (Centaurea cyano; 45 g of a.i./ha): 20%
Herbicidal action in [%] 14 DAT against Matricaria inodora (Matricaria inodora; 5 g of a.i./ha): 20%
Herbicidal action in [%] 28 DAT against Matricaria inodora (Matricaria inodora; 5 g of a.i./ha): 10%
Herbicidal action in [%] 14 DAT against Alopecurus myosuroides (Alopecurus myosuroides [1]; 5 g of a.i./ha): 0%
Herbicidal action in [%] 28 DAT against Alopecurus myosuroides (Alopecurus myosuroides [1]; 5 g of a.i./ha): 0%
Herbicidal action in [%] 14 DAT against Alopecurus myosuroides (Alopecurus myosuroides [1]; 15 g of a.i./ha): 0%
Herbicidal action in [%] 28 DAT against Alopecurus myosuroides (Alopecurus myosuroides [1]; 15 g of a.i./ha): 0%
Herbicidal action in [%] 14 DAT against Alopecurus myosuroides (Alopecurus myosuroides [1]; 45 g of a.i./ha): 10%
Herbicidal action in [%] 28 DAT against Alopecurus myosuroides (Alopecurus myosuroides [1]; 45 g of a.i./ha): 10%
Herbicidal action in [%] 14 DAT against Bromus sterilis (Bromus sterilis; 5 g of a.i./ha): 0%
Herbicidal action in [%] 14 DAT against Bromus sterilis (Bromus sterilis; 15 g of a.i./ha): 0%
Herbicidal action in [%] 14 DAT against Bromus sterilis (Bromus sterilis; 45 g of a.i./ha): 10%
Herbicidal action in [%] 14 DAT against Lolium rigidum (Lolium rigidum; 5 g of a.i./ha): 0%
Herbicidal action in [%] 28 DAT against Lolium rigidum (Lolium rigidum; 5 g of a.i./ha): 0%
Herbicidal action in [%] 14 DAT against Lolium rigidum (Lolium rigidum; 15 g of a.i./ha): 5%
Herbicidal action in [%] 28 DAT against Lolium rigidum (Lolium rigidum; 15 g of a.i./ha): 0%
Herbicidal action in [%] 14 DAT against Lolium rigidum (Lolium rigidum; 45 g of a.i./ha): 5%
Herbicidal action in [%] 28 DAT against Lolium rigidum (Lolium rigidum; 45 g of a.i./ha): 10%
Herbicidal action in [%] 14 DAT against Lolium rigidum (resistant biotype) ([2]; 5 g of a.i./ha): 5%
Herbicidal action in [%] 28 DAT against Lolium rigidum (resistant biotype) ([2]; 5 g of a.i./ha): 0%
Herbicidal action in [%] 14 DAT against Lolium rigidum (resistant biotype) ([2]; 15 g of a.i./ha): 5%
Herbicidal action in [%] 28 DAT against Lolium rigidum (resistant biotype) ([2]; 15 g of a.i./ha): 0%
Herbicidal action in [%] 14 DAT against Lolium rigidum (resistant biotype) ([2]; 45 g of a.i./ha): 10%
Herbicidal action in [%] 14 DAT against Phalaris minor (Phalaris minor [3]; 5 g of a.i./ha): 0%
Herbicidal action in [%] 28 DAT against Phalaris minor (Phalaris minor [3]; 5 g of a.i./ha): 0%
Herbicidal action in [%] 14 DAT against Phalaris minor (Phalaris minor [3]; 15 g of a.i./ha): 0%
Herbicidal action in [%] 28 DAT against Phalaris minor (Phalaris minor [3]; 15 g of a.i./ha): 0%

C#CCN1C(=O)COc2cc(F)c(N3C(=O)C4=C(CCCC4)C3=O)cc21 [(B5.26) Flumioxazin]
pest or weed control at 1.33 g/ha (Amaranthus palmeri; 21 DAT, 1.33 g of a.i./ha): 0%
pest or weed control at 4 g/ha (Amaranthus palmeri; 21 DAT, 4 g of a.i./ha): 0%
pest or weed control at 12 g/ha (Amaranthus palmeri; 21 DAT, 12 g of a.i./ha): 10%

CP(=O)(O)CCC(N)C(=O)O (racemic) [(B7.4) Glufosinate-]
Herbicidal action (Bidens pilosa; 21 DAT, 360 g a.i./ha): 70%
Herbicidal action (Digitaria sanguinalis; 40 g a.i./ha): 10%
Herbicidal action (Digitaria sanguinalis; 120 g a.i./ha): 30%

COc1cc(OC)nc(NC(=O)NS(=O)(=O)c2cc(CNS(C)(=O)=O)ccc2C(=O)O)n1 [(B2.37) Mesosulfuron]
Herbicidal action 28 DAT against Centaurea cyanus (Centaurea cyano; 5 g of a.i./ha): 60%
Herbicidal action 14 DAT against Matricaria inodora (Matricaria inodora; 15 g of a.i./ha): 75%
Herbicidal action 28 DAT against Matricaria inodora (Matricaria inodora; 15 g of a.i./ha): 65%
Herbicidal action 14 DAT against Lolium rigidum (resistant biotype) ([4]; 1.7 g of a.i./ha): 20%
Herbicidal action 28 DAT against Lolium rigidum (resistant biotype) ([4]; 1.7 g of a.i./ha): 0%
Herbicidal action 14 DAT against Lolium rigidum (resistant biotype) ([4]; 5 g of a.i./ha): 30%
Herbicidal action 28 DAT against Lolium rigidum (resistant biotype) ([4]; 5 g of a.i./ha): 0%
Herbicidal action 14 DAT against Lolium rigidum (resistant biotype) ([4]; 15 g of a.i./ha): 30%
Herbicidal action 28 DAT against Lolium rigidum (resistant biotype) ([4]; 15 g of a.i./ha): 20%
Herbicidal action 28 DAT against Phalaris minor (Phalaris minor [5]): 85%
Herbicidal action 28 DAT against Alopecurus myosuroides (Alopecurus myosuroides [6]): 75%

CCc1cnc(C2=NC(C)(C(C)C)C(=O)N2)c(C(=O)O)c1 (stereo not shown) [(B4.15) Imazethapyr]
pest or weed control at 3.33 g/ha (Amaranthus palmeri; 3.33 g of a.i./ha, read-out: Herbicidal action 21 DAT [%] against Amaranthus palmeri): 0%
pest or weed control at 10 g/ha (Amaranthus palmeri; 10 g of a.i./ha, read-out: Herbicidal action 21 DAT [%] against Amaranthus palmeri): 0%
pest or weed control at 30 g/ha (Amaranthus palmeri; 30 g of a.i./ha, read-out: Herbicidal action 21 DAT [%] against Amaranthus palmeri): 10%
Herbicidal action 21 DAT [%] against Bidens pilosa (Bidens pilosa; 3.33 g of a.i./ha): 0%
Herbicidal action 21 DAT [%] against Bidens pilosa (Bidens pilosa; 10 g of a.i./ha): 0%
Herbicidal action 21 DAT [%] against Bidens pilosa (Bidens pilosa; 30 g of a.i./ha): 25%
